US6011039A, “Aminopyridine derivatives” (Banyu Pharmaceutical Co., Ltd., priority 1996, dated 2000)
pIC50: −log10 of the molar value.

Experiments:
NPY Y1 receptor = target: T1, NPY Y1 receptor (Homo sapiens, UniProt P25929); test: NPY Binding Inhibition Test ([125I] peptide YY binding to SK-N-MC cell membranes); settings: SK-N-MC membrane, 25° C., 2 hours, pH 7.4, 20,000 cpm [125I] peptide YY; read-out: IC50 (50% inhibition concentration against specific [125I] peptide YY binding)
T1 construct: A membrane sample prepared from SK-N-MC cells derived from human neuroblastoma; endogenous in cells; host or cells: SK-N-MC
T1 sequence (P25929 1-384): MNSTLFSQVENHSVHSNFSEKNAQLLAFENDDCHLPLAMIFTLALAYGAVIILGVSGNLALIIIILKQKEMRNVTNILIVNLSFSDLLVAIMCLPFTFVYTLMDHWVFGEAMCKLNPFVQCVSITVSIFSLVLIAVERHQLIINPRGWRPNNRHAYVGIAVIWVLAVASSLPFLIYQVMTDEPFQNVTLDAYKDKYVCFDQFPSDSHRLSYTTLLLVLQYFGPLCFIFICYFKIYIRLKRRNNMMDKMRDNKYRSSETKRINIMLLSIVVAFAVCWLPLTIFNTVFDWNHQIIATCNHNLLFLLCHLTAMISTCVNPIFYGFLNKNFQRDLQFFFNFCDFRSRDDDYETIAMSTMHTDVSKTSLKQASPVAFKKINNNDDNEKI
Method: Pharmacological Test Example 1
(NPY Binding Inhibition Test)
A membrane sample prepared from SK-N-MC cells derived from human neuroblastoma in which the expression of NPY Y1 receptor was reported, was incubated at 25° C. for 2 hours together with a test compound and 20,000 cpm of [^125 I] peptide YY (manufactured by Amersham Company) in an assay buffer (25 mM HEPES buffer solution containing 10 mM of magnesium chloride, 1 mM of phenylmethylsulfonyl fluoride, 0.1% of bacitracin and 0.5% of BSA, pH 7.4), and then subjected to filtration by a glass filter GF/C. After washing with a 50 mM Tris buffer solution containing 0.3% of BSA at pH 7.4, the radiation activity on the glass filter was measured by a gamma counter. The nonspecific binding was measured in the presence of 1 μM of peptide YY and the 50% inhibition concentration (IC50) of the test compound against specific [^125 I] peptide YY binding was obtained [Endocrinology, vol. 131, 2090 (1992)].

[1] = test system: NPY-induced feeding behavior; test: Antagonistic Test Against NPY-Induced Feeding Behavior In Vivo; design: species or system male SD rat; settings: 200 μg/head, into lateral ventricle, simultaneously with NPY (5 μg/head/10 μl); food intake for two hours; Duncan's test, p<0.05 significant
Method: Pharmacological Test Example 2
(Antagonistic Test Against NPY-Induced Feeding Behavior In Vivo)
Under pentobarbital anesthesia (intraperitoneal single administration of 200 mg/kg), a chronic guide cannula (outer diameter: 0.8 mm, inner diameter: 0.5 mm, length: 10 mm) was inserted stereotaxically in the right lateral cerebral ventricle of a male SD rat (7 to 8 weeks old, 200 to 300 g) and fixed by a dental resin. The forward end position of the guide cannula was at 0.9 mm posterior to bregma, 1.2 mm to the right of the midline and 1.5 mm ventral to the brain surface, so that when an inner needle was inserted, the forward end extended beyond the forward end of the guide cannula by about 2 mm and reached the lateral ventricle. After a recovery period of about one week, NPY (5 μg/head/10 μl) was administered into the lateral ventricle. The test compound was simultaneously administered as mixed with NPY, and food intake for two hours after the administration was measured. With respect to the obtained result, a multiple comparative determination was carried out by Duncan's test, whereby p<0.05 was taken as significant.

pIC50 (NPY Y1 receptor): 9.48
Compound: C=CCOC(=O)Nc1cccc(CNc2cc(N3CCOCC3)cc(CSc3nnc(CC)s3)n2)c1 [Example 4, 6-(5-ethyl-1,3,4-thiadiazol-2-ylthiomethyl)-4-morpholino-2-[3-(2-propenyloxycarbonylamino)benzylamino]pyridine]
increase in food intake induced by NPY [1]: significantly suppressed the increase in food intake induced by NPY
